Test system: bone marrow stromal cells (BMSCs)
Test: Transwell migration assay of BMSCs
Assay type: cell-based, mouse
Method: The macrophage culture, co-cultures with apoptosis mimicking structures, and co-cultures with the control microspheres were also used in transwell assays to determine in vitro bone marrow stromal cell migration. Bone marrow stromal cells (BMSCs) were derived from bone marrow flush, and were cultured in α-MEM medium (20% FBS, Pen/Strep, glutamine) for one time (passage) after isolation.
Cell migration was assessed in 24-well plate transwells (Corning, Inc.) with a diameter of 6.5 mm and a pore size of 8 μm coated with 0.2 mg/mL collagen type I (EMD Millipore). BMSCs were placed in the upper chambers. Conditioned media from the macrophage culture, the co-cultures, or α-MEM medium (a negative control) containing CCL-2 protein and 0.2% FBS were added to the lower chambers. After 8 hours, cells were fixed with 2.5% glutaraldehyde for 15 minutes. Cells which remained on top of transwell membranes were removed with cotton swabs. Cells that had migrated through the pores to the lower surface were stained with Gill's Hematoxylin (Sigma-Aldrich). Four fields at 200× magnification were selected at random, photo micrographic images were obtained (shown in FIG. 15C), and the cells in each image were counted (results shown in FIG. 15D).
Different concentrations of recombinant CCL-2 were also examined for increasing BMSC migration.

CCL-2: recombinant C-C motif chemokine ligand 2 protein
increase of BMSCs migration compared with the control medium (concentration of 10 ng/ml): about 70% | further increase in BMSCs migration (concentration up to 100 ng/ml): did not cause further increase
